Assay results from paper PMC11491488 (Scientific Reports, 2024).

Experiments:
[1] = system: gram-positive Staphylococcus aureus (S. aureus); experiment: MIC assay, percentage growth inhibition, serial dilution in 96-well plates; type: cell-based; details: for inhibition of bacterial cells: at higher concentrations
[2] = system: gram-negative Pseudomonas aeruginosa (P. aeruginosa); experiment: as above; type: cell-based; details: for inhibition of bacterial cells: at higher concentrations

Structure (SMILES)	percent of S. aureus killed ([1]; 12 µg/mL)	inhibition of bacterial cells [1]	percent of P. aeruginosa killed ([2]; 4 µg/mL)	inhibition of bacterial cells [2]	inhibition at 128 µg/mL ([1]; Staphylococcus aureus, read-out: inhibitory effect against S. aureus)	inhibition at 40 µg/mL ([2]; Pseudomonas aeruginosa, read-out: inhibitory effect against P. aeruginosa)
O=C(O)c1cn(C2CC2)c2cc(N3CCNCC3)c(F)cc2c1=O [CIPRO, ciprofloxacin]	98.30 ± 0.26%	90%	100.67 ± 0.39%	90%	–	–
C[C@H]1COc2c(N3CCN(C)CC3)c(F)cc3c(=O)c(C(=O)O)cn1c23 [LEVO, levofloxacin]	–	90%	–	90%	–	–
CCn1cc(C(=O)O)c(=O)c2cc(F)c(N3CCNCC3)cc21 [NOR, norfloxacin]	–	90%	–	90%	97.9 ± 0.38%	100.4 ± 0.17%
